{
  "source": "PubChem BioAssay AID2060885",
  "about": "(Molecular Pharmacology Branch, DTP, NCI, 2025)",
  "system": "NCI-H23 complex spheroids with HUVEC/MSC, viability",
  "assay": "Anticancer human tumor NCI-H23 cell line growth inhibition [RAS];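 also: spheroids exposed to compound for 7 days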;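 as to viability, T/C: 100% = DMSO vehicle control viability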",
  "conditions": "for IC50: curve of first compound; for viability, T/C: stronger effect = lower value",
  "how_it_was_run": "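Tumour cells grown as complex spheroids with HUVEC endothelial cells and mesenchymal stem cells, treated with RAS pathway inhibitor combinations. Each agent spans half-log steps from near clinical Cmax, or 10 microM where Cmax is unknown.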",
  "key": {"[1]": {"conditions": "second compound 0.00316 µM, first compound 0.0316 µM"}, "[2]": {"conditions": "second compound 0.00316 µM, first compound 0.1 µM"}, "[3]": {"conditions": "second compound 0.00316 µM, first compound 0.316 µM"}, "[4]": {"conditions": "second compound 0.00316 µM, first compound 1 µM"}, "[5]": {"conditions": "second compound 0.00316 µM, first compound 3.16 µM"}, "[6]": {"conditions": "second compound 0.00316 µM, first compound 10 µM"}, "[7]": {"conditions": "second compound 0.01 µM, first compound 0.0316 µM"}, "[8]": {"conditions": "second compound 0.01 µM, first compound 0.1 µM"}, "[9]": {"conditions": "second compound 0.01 µM, first compound 0.316 µM"}, "[10]": {"conditions": "second compound 0.01 µM, first compound 1 µM"}, "[11]": {"conditions": "second compound 0.01 µM, first compound 3.16 µM"}, "[12]": {"conditions": "second compound 0.01 µM, first compound 10 µM"}, "[13]": {"conditions": "second compound 0.0316 µM, first compound 0.0316 µM"}, "[14]": {"conditions": "second compound 0.0316 µM, first compound 0.1 µM"}, "[15]": {"conditions": "second compound 0.0316 µM, first compound 0.316 µM"}, "[16]": {"conditions": "second compound 0.0316 µM, first compound 1 µM"}, "[17]": {"conditions": "second compound 0.0316 µM, first compound 3.16 µM"}, "[18]": {"conditions": "second compound 0.0316 µM, first compound 10 µM"}, "[19]": {"conditions": "second compound 0.1 µM, first compound 0.0316 µM"}, "[20]": {"conditions": "second compound 0.1 µM, first compound 0.1 µM"}, "[21]": {"conditions": "second compound 0.1 µM, first compound 0.316 µM"}, "[22]": {"conditions": "second compound 0.1 µM, first compound 1 µM"}, "[23]": {"conditions": "second compound 0.1 µM, first compound 3.16 µM"}, "[24]": {"conditions": "second compound 0.1 µM, first compound 10 µM"}, "[25]": {"conditions": "second compound 0.316 µM, first compound 0.0316 µM"}, "[26]": {"conditions": "second compound 0.316 µM, first compound 0.1 µM"}, "[27]": {"conditions": "second compound 0.316 µM, first compound 0.316 µM"}, "[28]": {"conditions": "second compound 0.316 µM, first compound 1 µM"}, "[29]": {"conditions": "second compound 0.316 µM, first compound 3.16 µM"}, "[30]": {"conditions": "second compound 0.316 µM, first compound 10 µM"}, "[31]": {"conditions": "second compound 1 µM, first compound 0.0316 µM"}, "[32]": {"conditions": "second compound 1 µM, first compound 0.1 µM"}, "[33]": {"conditions": "second compound 1 µM, first compound 0.316 µM"}, "[34]": {"conditions": "second compound 1 µM, first compound 1 µM"}, "[35]": {"conditions": "second compound 1 µM, first compound 3.16 µM"}, "[36]": {"conditions": "second compound 1 µM, first compound 10 µM"}},
  "data": [
    {"smiles": "Cc1nc(N2CCC3(CC2)COC(C)C3N)c(CO)nc1Sc1ccnc(N)c1Cl", "note": "(centres undefined) + C=CC(=O)N1CCN(c2nc(OCC3CCCN3C)nc3c(F)c(-c4nc(N)cc(C)c4C(F)(F)F)c(Cl)cc23)C(C)C1", "values": [
      {"measurement": "IC50", "setting": "second compound 0.00316 µM", "result": "< 31.6", "unit": "nM"},
      {"measurement": "IC50", "setting": "second compound 0.01 µM", "result": "< 31.6", "unit": "nM"},
      {"measurement": "IC50", "setting": "second compound 0.0316 µM", "result": "< 31.6", "unit": "nM"},
      {"measurement": "IC50", "setting": "second compound 0.1 µM", "result": "< 31.6", "unit": "nM"},
      {"measurement": "IC50", "setting": "second compound 0.316 µM", "result": "< 31.6", "unit": "nM"},
      {"measurement": "IC50", "setting": "second compound 1 µM", "result": "< 31.6", "unit": "nM"},
      {"measurement": "viability, T/C", "setting": "[1]", "result": 47.4, "unit": "%"},
      {"measurement": "viability, T/C", "setting": "[2]", "result": 48.5, "unit": "%"},
      {"measurement": "viability, T/C", "setting": "[3]", "result": 32, "unit": "%"},
      {"measurement": "viability, T/C", "setting": "[4]", "result": 27, "unit": "%"},
      {"measurement": "viability, T/C", "setting": "[5]", "result": 31.7, "unit": "%"},
      {"measurement": "viability, T/C", "setting": "[6]", "result": 25.4, "unit": "%"},
      {"measurement": "viability, T/C", "setting": "[7]", "result": 44.3, "unit": "%"},
      {"measurement": "viability, T/C", "setting": "[8]", "result": 42.3, "unit": "%"},
      {"measurement": "viability, T/C", "setting": "[9]", "result": 26.7, "unit": "%"},
      {"measurement": "viability, T/C", "setting": "[10]", "result": 28.5, "unit": "%"},
      {"measurement": "viability, T/C", "setting": "[11]", "result": 22.6, "unit": "%"},
      {"measurement": "viability, T/C", "setting": "[12]", "result": 16.4, "unit": "%"},
      {"measurement": "viability, T/C", "setting": "[13]", "result": 36, "unit": "%"},
      {"measurement": "viability, T/C", "setting": "[14]", "result": 33.6, "unit": "%"},
      {"measurement": "viability, T/C", "setting": "[15]", "result": 24.7, "unit": "%"},
      {"measurement": "viability, T/C", "setting": "[16]", "result": 26.7, "unit": "%"},
      {"measurement": "viability, T/C", "setting": "[17]", "result": 21.1, "unit": "%"},
      {"measurement": "viability, T/C", "setting": "[18]", "result": 20, "unit": "%"},
      {"measurement": "viability, T/C", "setting": "[19]", "result": 37.2, "unit": "%"},
      {"measurement": "viability, T/C", "setting": "[20]", "result": 35.5, "unit": "%"},
      {"measurement": "viability, T/C", "setting": "[21]", "result": 25.8, "unit": "%"},
      {"measurement": "viability, T/C", "setting": "[22]", "result": 23.9, "unit": "%"},
      {"measurement": "viability, T/C", "setting": "[23]", "result": 19.7, "unit": "%"},
      {"measurement": "viability, T/C", "setting": "[24]", "result": 17.2, "unit": "%"},
      {"measurement": "viability, T/C", "setting": "[25]", "result": 31.1, "unit": "%"},
      {"measurement": "viability, T/C", "setting": "[26]", "result": 31.6, "unit": "%"},
      {"measurement": "viability, T/C", "setting": "[27]", "result": 30.2, "unit": "%"},
      {"measurement": "viability, T/C", "setting": "[28]", "result": 23.2, "unit": "%"},
      {"measurement": "viability, T/C", "setting": "[29]", "result": 23.3, "unit": "%"},
      {"measurement": "viability, T/C", "setting": "[30]", "result": 17.5, "unit": "%"},
      {"measurement": "viability, T/C", "setting": "[31]", "result": 36.6, "unit": "%"},
      {"measurement": "viability, T/C", "setting": "[32]", "result": 32.8, "unit": "%"},
      {"measurement": "viability, T/C", "setting": "[33]", "result": 26.6, "unit": "%"},
      {"measurement": "viability, T/C", "setting": "[34]", "result": 18.6, "unit": "%"},
      {"measurement": "viability, T/C", "setting": "[35]", "result": 22.7, "unit": "%"},
      {"measurement": "viability, T/C", "setting": "[36]", "result": 17.9, "unit": "%"}
    ]},
    {"smiles": "NC1c2ccccc2OC12CCN(c1cnc3c(N4CCCc5ncccc54)n[nH]c3n1)CC2", "note": "(centres undefined) + C=CC(=O)N1CCN(c2nc(OCC3CCCN3C)nc3c(F)c(-c4nc(N)cc(C)c4C(F)(F)F)c(Cl)cc23)C(C)C1", "values": [
      {"measurement": "IC50", "setting": "second compound 0.00316 µM", "result": "< 31.6", "unit": "nM"},
      {"measurement": "IC50", "setting": "second compound 0.01 µM", "result": "< 31.6", "unit": "nM"},
      {"measurement": "IC50", "setting": "second compound 0.0316 µM", "result": "< 31.6", "unit": "nM"},
      {"measurement": "IC50", "setting": "second compound 0.1 µM", "result": "< 31.6", "unit": "nM"},
      {"measurement": "IC50", "setting": "second compound 0.316 µM", "result": "< 31.6", "unit": "nM"},
      {"measurement": "IC50", "setting": "second compound 1 µM", "result": "< 31.6", "unit": "nM"},
      {"measurement": "viability, T/C", "setting": "[1]", "result": 36.1, "unit": "%"},
      {"measurement": "viability, T/C", "setting": "[2]", "result": 31.4, "unit": "%"},
      {"measurement": "viability, T/C", "setting": "[3]", "result": 23.7, "unit": "%"},
      {"measurement": "viability, T/C", "setting": "[4]", "result": 20.7, "unit": "%"},
      {"measurement": "viability, T/C", "setting": "[5]", "result": 17.5, "unit": "%"},
      {"measurement": "viability, T/C", "setting": "[6]", "result": 12.2, "unit": "%"},
      {"measurement": "viability, T/C", "setting": "[7]", "result": 32.9, "unit": "%"},
      {"measurement": "viability, T/C", "setting": "[8]", "result": 29.2, "unit": "%"},
      {"measurement": "viability, T/C", "setting": "[9]", "result": 18.9, "unit": "%"},
      {"measurement": "viability, T/C", "setting": "[10]", "result": 16.9, "unit": "%"},
      {"measurement": "viability, T/C", "setting": "[11]", "result": 11.4, "unit": "%"},
      {"measurement": "viability, T/C", "setting": "[12]", "result": 10.4, "unit": "%"},
      {"measurement": "viability, T/C", "setting": "[13]", "result": 27.9, "unit": "%"},
      {"measurement": "viability, T/C", "setting": "[14]", "result": 25, "unit": "%"},
      {"measurement": "viability, T/C", "setting": "[15]", "result": 18.2, "unit": "%"},
      {"measurement": "viability, T/C", "setting": "[16]", "result": 13.6, "unit": "%"},
      {"measurement": "viability, T/C", "setting": "[17]", "result": 11.8, "unit": "%"},
      {"measurement": "viability, T/C", "setting": "[18]", "result": 10.1, "unit": "%"},
      {"measurement": "viability, T/C", "setting": "[19]", "result": 25, "unit": "%"},
      {"measurement": "viability, T/C", "setting": "[20]", "result": 21.6, "unit": "%"},
      {"measurement": "viability, T/C", "setting": "[21]", "result": 17.8, "unit": "%"},
      {"measurement": "viability, T/C", "setting": "[22]", "result": 14.8, "unit": "%"},
      {"measurement": "viability, T/C", "setting": "[23]", "result": 11.8, "unit": "%"},
      {"measurement": "viability, T/C", "setting": "[24]", "result": 8.71, "unit": "%"},
      {"measurement": "viability, T/C", "setting": "[25]", "result": 23.1, "unit": "%"},
      {"measurement": "viability, T/C", "setting": "[26]", "result": 23.4, "unit": "%"},
      {"measurement": "viability, T/C", "setting": "[27]", "result": 19.4, "unit": "%"},
      {"measurement": "viability, T/C", "setting": "[28]", "result": 14.8, "unit": "%"},
      {"measurement": "viability, T/C", "setting": "[29]", "result": 12.2, "unit": "%"},
      {"measurement": "viability, T/C", "setting": "[30]", "result": 11.7, "unit": "%"},
      {"measurement": "viability, T/C", "setting": "[31]", "result": 26.8, "unit": "%"},
      {"measurement": "viability, T/C", "setting": "[32]", "result": 24.6, "unit": "%"},
      {"measurement": "viability, T/C", "setting": "[33]", "result": 20.1, "unit": "%"},
      {"measurement": "viability, T/C", "setting": "[34]", "result": 13.1, "unit": "%"},
      {"measurement": "viability, T/C", "setting": "[35]", "result": 12.8, "unit": "%"},
      {"measurement": "viability, T/C", "setting": "[36]", "result": 11.2, "unit": "%"}
    ]}
  ]
}
